Test results from ChEMBL document CHEMBL1201862, “PubChem BioAssay data set” (2004).
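Growth conditions: 96-well plates. Treatment: test compound, 48 hours, 5 concentrations. Analysis: linear interpolation between bracketing concentrations; unreached endpoints set to highest concentration. At the GI50, growth is halved.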 The source made the active and inactive calls. Cut-off read from the data, not from the text of the source: active = GI50 up to about 1.1 µM and inactive = higher.

Assays:
Test in all cases: NCI tumour cell line growth inhibition, 48 h
UACC-62 = system: UACC-62
SW-620 = system: SW-620
BT-549 = system: BT-549
IGROV-1 = system: IGROV-1
NCI/ADR-RES = system: NCI/ADR-RES
MDA-MB-231 = system: MDA-MB-231
OVCAR-5 = system: OVCAR-5
Hs-578T = system: Hs-578T
RXF 393 = system: RXF 393
HCC 2998 = system: HCC 2998
ACHN = system: ACHN
PC-3 = system: PC-3
K562 = system: K562
HCT-116 = system: HCT-116
SK-MEL-2 = system: SK-MEL-2
NCI-H23 = system: NCI-H23
SF-539 = system: SF-539

## CCC1c2[nH]c3ccccc3c2C[C@H]2C(=O)NC(C)C(=O)N12 (some centres undefined)
UACC-62
  GI50: > 100 µM (inactive)
SW-620
  GI50: > 100 µM (inactive)
BT-549
  GI50: > 100 µM (inactive)
IGROV-1
  GI50: > 100 µM (inactive)
NCI/ADR-RES
  GI50: > 100 µM (inactive)
MDA-MB-231
  GI50: > 100 µM (inactive)
OVCAR-5
  GI50: > 100 µM (inactive)
Hs-578T
  GI50: > 100 µM (inactive)
RXF 393
  GI50: > 100 µM (inactive)
HCC 2998
  GI50: > 100 µM (inactive)
ACHN
  GI50: > 100 µM (inactive)
PC-3
  GI50: > 100 µM (inactive)
K562
  GI50: > 100 µM (inactive)
HCT-116
  GI50: > 100 µM (inactive)
SK-MEL-2
  GI50: > 100 µM (inactive)
NCI-H23
  GI50: > 100 µM (inactive)

## COC(=O)/C=C\n1ncc(=O)[nH]c1=O
SW-620
  GI50: > 100 µM (inactive)
BT-549
  GI50: > 100 µM (inactive)
IGROV-1
  GI50: > 100 µM (inactive)
NCI/ADR-RES
  GI50: > 100 µM (inactive)
MDA-MB-231
  GI50: > 100 µM (inactive)
OVCAR-5
  GI50: > 100 µM (inactive)
Hs-578T
  GI50: > 100 µM (inactive)
HCC 2998
  GI50: > 100 µM (inactive)
ACHN
  GI50: > 100 µM (inactive)
PC-3
  GI50: > 100 µM (inactive)
K562
  GI50: > 100 µM (inactive)
SK-MEL-2
  GI50: > 100 µM (inactive)
NCI-H23
  GI50: > 100 µM (inactive)

## O=C(O)CCCN1CCCCC1
UACC-62
  GI50: > 100 µM (inactive)
SW-620
  GI50: > 100 µM (inactive)
BT-549
  GI50: > 100 µM (inactive)
IGROV-1
  GI50: > 100 µM (inactive)
NCI/ADR-RES
  GI50: > 100 µM (inactive)
MDA-MB-231
  GI50: > 100 µM (inactive)
OVCAR-5
  GI50: > 100 µM (inactive)
Hs-578T
  GI50: > 100 µM (inactive)
RXF 393
  GI50: > 100 µM (inactive)
HCC 2998
  GI50: > 100 µM (inactive)
ACHN
  GI50: > 100 µM (inactive)
PC-3
  GI50: > 100 µM (inactive)
K562
  GI50: > 100 µM (inactive)
HCT-116
  GI50: > 100 µM (inactive)
SK-MEL-2
  GI50: > 100 µM (inactive)
NCI-H23
  GI50: > 100 µM (inactive)

## N#Cc1c(N)c2c(c(-c3ccccc3)c1-c1ccccc1)C(=O)N(O)C2=O
UACC-62
  GI50: 39.9 µM (inactive)
SW-620
  GI50: 96.8 µM (inactive)
BT-549
  GI50: 42.2 µM (inactive)
SF-539
  GI50: 66.5 µM (inactive)
IGROV-1
  GI50: 19.5 µM (inactive)
NCI/ADR-RES
  GI50: > 100 µM (inactive)
MDA-MB-231
  GI50: > 100 µM (inactive)
OVCAR-5
  GI50: 63 µM (inactive)
Hs-578T
  GI50: 18.9 µM (inactive)
RXF 393
  GI50: 10.5 µM (inactive)
HCC 2998
  GI50: 17.5 µM (inactive)
ACHN
  GI50: > 100 µM (inactive)
PC-3
  GI50: 14.1 µM (inactive)
K562
  GI50: 91.8 µM (inactive)
HCT-116
  GI50: 19.5 µM (inactive)
SK-MEL-2
  GI50: 41 µM (inactive)

## Cc1ccc(OCC2=NN3C(=O)/C(=C\c4ccc([N+](=O)[O-])o4)SC3N2)cc1 (centres undefined)
SW-620
  GI50: 2.93 µM (inactive)
BT-549
  GI50: 12.5 µM (inactive)
SF-539
  GI50: 2 µM (inactive)
IGROV-1
  GI50: 10.5 µM (inactive)
NCI/ADR-RES
  GI50: 9.04 µM (inactive)
MDA-MB-231
  GI50: 12.4 µM (inactive)
OVCAR-5
  GI50: 19.2 µM (inactive)
Hs-578T
  GI50: 21.7 µM (inactive)
RXF 393
  GI50: 14.9 µM (inactive)
ACHN
  GI50: 1.71 µM (inactive)
PC-3
  GI50: 5.5 µM (inactive)
K562
  GI50: 0.711 µM (active)
HCT-116
  GI50: 3.63 µM (inactive)
SK-MEL-2
  GI50: 15.7 µM (inactive)
NCI-H23
  GI50: 11.9 µM (inactive)

## Cc1c(Cl)c(S(N)(=O)=O)cc2c1N=CNS2(=O)=O
UACC-62
  GI50: > 100 µM (inactive)
SW-620
  GI50: > 100 µM (inactive)
BT-549
  GI50: > 100 µM (inactive)
IGROV-1
  GI50: > 100 µM (inactive)
NCI/ADR-RES
  GI50: > 100 µM (inactive)
MDA-MB-231
  GI50: > 100 µM (inactive)
OVCAR-5
  GI50: > 100 µM (inactive)
Hs-578T
  GI50: > 100 µM (inactive)
RXF 393
  GI50: > 100 µM (inactive)
HCC 2998
  GI50: > 100 µM (inactive)
ACHN
  GI50: > 100 µM (inactive)
PC-3
  GI50: > 100 µM (inactive)
K562
  GI50: > 100 µM (inactive)
HCT-116
  GI50: > 100 µM (inactive)
NCI-H23
  GI50: > 100 µM (inactive)

## O=P1(N(CCCl)CCCl)Oc2c(Cl)cc(Cl)c(Cl)c2Cc2c(Cl)c(Cl)cc(Cl)c2O1
UACC-62
  GI50: 48.3 µM (inactive)
SW-620
  GI50: 47.4 µM (inactive)
BT-549
  GI50: > 100 µM (inactive)
SF-539
  GI50: > 100 µM (inactive)
NCI/ADR-RES
  GI50: 45 µM (inactive)
MDA-MB-231
  GI50: 42.4 µM (inactive)
OVCAR-5
  GI50: 30.8 µM (inactive)
Hs-578T
  GI50: 30.3 µM (inactive)
RXF 393
  GI50: > 100 µM (inactive)
HCC 2998
  GI50: 25.2 µM (inactive)
ACHN
  GI50: 51.1 µM (inactive)
PC-3
  GI50: 23.2 µM (inactive)
K562
  GI50: 74 µM (inactive)
HCT-116
  GI50: 27.9 µM (inactive)
SK-MEL-2
  GI50: 22 µM (inactive)
NCI-H23
  GI50: 21.4 µM (inactive)

## COc1cc(Oc2nc3ccc(C(F)(F)F)cc3nc2-c2ccccc2)cc(OC)c1OC
UACC-62
  GI50: 11 µM (inactive)
SW-620
  GI50: > 10 µM (inactive)
BT-549
  GI50: 20.2 µM (inactive)
SF-539
  GI50: 19.7 µM (inactive)
IGROV-1
  GI50: 58.2 µM (inactive)
NCI/ADR-RES
  GI50: > 100 µM (inactive)
MDA-MB-231
  GI50: 23 µM (inactive)
OVCAR-5
  GI50: > 100 µM (inactive)
Hs-578T
  GI50: 21.9 µM (inactive)
RXF 393
  GI50: 11 µM (inactive)
HCC 2998
  GI50: 36.2 µM (inactive)
ACHN
  GI50: 11.6 µM (inactive)
PC-3
  GI50: 22.6 µM (inactive)
K562
  GI50: 40.5 µM (inactive)
HCT-116
  GI50: 10.8 µM (inactive)
NCI-H23
  GI50: 35.4 µM (inactive)

## C[N+]1([O-])[C@H]2CC(OC(=O)[C@H](CO)c3ccccc3)C[C@H]1[C@H]1O[C@H]12 (some centres undefined)
UACC-62
  GI50: > 100 µM (inactive)
SW-620
  GI50: > 100 µM (inactive)
BT-549
  GI50: > 100 µM (inactive)
SF-539
  GI50: > 100 µM (inactive)
IGROV-1
  GI50: > 100 µM (inactive)
NCI/ADR-RES
  GI50: > 100 µM (inactive)
MDA-MB-231
  GI50: > 100 µM (inactive)
OVCAR-5
  GI50: > 100 µM (inactive)
Hs-578T
  GI50: > 100 µM (inactive)
RXF 393
  GI50: > 100 µM (inactive)
ACHN
  GI50: > 100 µM (inactive)
PC-3
  GI50: > 100 µM (inactive)
K562
  GI50: > 100 µM (inactive)
HCT-116
  GI50: > 100 µM (inactive)
SK-MEL-2
  GI50: > 100 µM (inactive)
NCI-H23
  GI50: > 100 µM (inactive)
